Data set [1] has as its target T1, Human neutrophil elastase (Homo sapiens, UniProt P08246).
T1 construct: purchased Biocentrum (Krakow, Poland)
T1 sequence (P08246 30-267): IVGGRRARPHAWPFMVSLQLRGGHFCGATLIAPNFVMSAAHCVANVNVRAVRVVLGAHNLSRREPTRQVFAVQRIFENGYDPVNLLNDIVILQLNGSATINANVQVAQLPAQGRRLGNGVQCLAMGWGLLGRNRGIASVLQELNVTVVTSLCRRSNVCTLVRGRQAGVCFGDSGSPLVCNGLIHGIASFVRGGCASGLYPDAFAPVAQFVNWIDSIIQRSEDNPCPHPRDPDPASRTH
In words: IQF substrate hydrolysis kinetics with neutrophil elastase. Type of data set: biochemical. As to conditions: substrate 0.3-5 μM, 0.1 M HEPES, 0.5 M NaCl pH 7.5, 37 °C, mean of at least three, SD <10%. How it is done: (§1) All kinetic measurements were performed using a Spectra Max Gemini XPS spectrofluorimeter (Molecular Devices) at 37 °C. For the substrates with the new donor acceptor pair, ACC/DNP, the excitation wavelength was 355 nm, and the emission wavelength was 460 nm; for MCA/DNP, the corresponding values were 325 and 420 nm, respectively. The substrate concentrations were varied, and the enzyme concentration was kept constant in each assay; the total reaction volume was 100 μl. Measurements were conducted for 30 min, and only the linear part of the progress curve was used to determine the reaction velocity. The measurements were repeated, and the data presented are the average of at least three measurements. The catalytic parameters kcat and KM were established using GraphPad Prism software to directly fit the initial velocities and initial substrate concentrations to the Michaelis-Menten equation using non-linear regression analysis.
Assays with neutrophil elastase were performed in a buffer containing 0.1 M HEPES and 0.5 M NaCl at pH 7.5[9]. The enzyme was incubated in assay buffer for 10 min at 37 °C prior to the substrate addition and the measurement. For elastase, the concentration of substrates containing ACC ranged from 0.3 to 5 μM, and the enzyme concentration was 0.344 nM. The concentration of substrates containing MCA was ranged from 0.3 to 5 μM, and the enzyme concentration was 1.4 nM.

Data set [2] deals with T2, caspase-3 (Homo sapiens, UniProt P42574).
T2 construct: made in house
T2 sequence (P42574 29-175 limits assumed): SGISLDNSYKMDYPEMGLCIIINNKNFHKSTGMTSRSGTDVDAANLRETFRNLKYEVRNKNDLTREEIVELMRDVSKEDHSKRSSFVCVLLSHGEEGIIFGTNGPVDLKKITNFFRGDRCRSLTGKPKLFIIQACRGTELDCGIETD
T2 sequence (P42574 176-277 limits assumed): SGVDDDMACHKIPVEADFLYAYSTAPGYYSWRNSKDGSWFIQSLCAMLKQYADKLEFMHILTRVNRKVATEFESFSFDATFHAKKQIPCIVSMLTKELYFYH
The data set is described as follows: IQF substrate hydrolysis kinetics with caspase-3. The class given is biochemical. The note with it: ACC/Lys(DNP) substrate; caspase-3 1.0 nM; substrate 1-50 μM; Pipes buffer pH 7.2-7.4; 37 °C; ex 355/em 460 nm; mean of at least three, SD <10%. How it is done:
as §1
(§2) Caspase assays were performed in a buffer containing 20 mM Pipes, 0.1 M NaCl, 1 mM EDTA, 10 mM DTT, and 10% (w/v) sucrose at pH 7.2 to 7.4[61]. The buffer used for caspase-8, caspase-9 and caspase-10 was supplemented with 1 M sodium citrate. Each caspase was incubated with assay buffer for 30 min at 37 °C before the substrates were added. For caspase-3, the concentration of substrates containing ACC or MCA on the measurement plate ranged from 1 to 50 μM, and the enzyme concentration ranged from 1 to 3 nM. For caspase-7, the concentration of substrates containing ACC or MCA on the measurement plate ranged from 1 to 50 μM, and the enzyme concentration ranged from 10 to 30 nM. For caspase-8, the concentration of a substrates containing ACC or MCA on the measurement plate ranged from 4 to 80 μM, and the enzyme concentration ranged from 20 to 50 nM.
(§3) To obtain further insight into the caspase P1-P1′ preferences, we determined the kinetic parameters for selected IQF substrates. The kinetic analysis was performed in a similar manner to that described above (Substrate Kinetics). The buffers used for caspase-8, caspase-9, and caspase-10 were supplemented with 1.0 M sodium citrate. The enzyme concentrations were as follows: caspase-3, 6 nM; caspase-7, 25 nM; caspase-8, 30–60 nM; caspase-9, 20–140 nM; and caspase-10, 25–125 nM. When testing initiator caspases, the higher enzyme concentration was used for non-optimal LEHE/X substrates.

In data set [3] the target is T3, caspase-8 (Homo sapiens, UniProt Q14790).
T3 construct: made in house
In words: IQF substrate hydrolysis kinetics with caspase-8. The class given is biochemical. The note with it: ACC/Lys(DNP) substrate; caspase-8 20 nM; substrate 4-80 μM; Pipes buffer pH 7.2-7.4 with 1 M sodium citrate; 37 °C; ex 355/em 460 nm; mean of at least three, SD <10%. How it is done: as §1, §2, §3

Data set [4] concerns the target T4, caspase-7 (Homo sapiens, UniProt P55210).
T4 construct: made in house
T4 sequence (P55210 24-198 limits assumed): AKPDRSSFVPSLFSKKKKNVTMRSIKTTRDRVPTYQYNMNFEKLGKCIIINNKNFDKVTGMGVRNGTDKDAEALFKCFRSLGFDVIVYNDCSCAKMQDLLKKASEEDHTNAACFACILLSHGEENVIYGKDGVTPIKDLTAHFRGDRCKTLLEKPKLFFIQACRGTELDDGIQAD
T4 sequence (P55210 207-303 limits assumed): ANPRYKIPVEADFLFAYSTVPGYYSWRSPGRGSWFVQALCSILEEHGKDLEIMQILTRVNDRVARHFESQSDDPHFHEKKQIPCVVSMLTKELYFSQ
In words: IQF substrate hydrolysis kinetics with caspase-7. The class given is biochemical. As to conditions: ACC/Lys(DNP) substrate; caspase-7 10 nM; substrate 1-50 μM; Pipes buffer pH 7.2-7.4; 37 °C; ex 355/em 460 nm; mean of at least three, SD <10%. How it is done: as §1, §2, §3

Data set [5] deals with caspase-3. The data set is described as follows: caspase-3 in caspase buffer, IQF library screening and kinetics. The note with it: human, 37 °C, up to 30 min.
For data set [6], the system named is caspase-7. The data set is described as follows: caspase-7 in caspase buffer, IQF library screening and kinetics. As to conditions: human, 37 °C, up to 30 min.
The subject of a further data set is caspase-10. In words: caspase-10 in caspase buffer supplemented with 1.0 M sodium citrate, IQF library screening and kinetics. The note with it: human, 37 °C, up to 30 min.
Data set [7] concerns caspase-8. The data set is described as follows: caspase-8 in caspase buffer supplemented with 1.0 M sodium citrate, IQF library screening and kinetics. The note with it: human, 37 °C, up to 30 min.
The test system of another data set is caspase-9. In words: caspase-9 in caspase buffer supplemented with 1.0 M sodium citrate, IQF library screening and kinetics. The note with it: human, 37 °C, up to 30 min.
For another data set, the system named is trypsin. In words: IQF substrate hydrolysis kinetics with trypsin. The class given is biochemical. The note with it: for kcat/Km values: ACC-GGLSX*IVK(DNP)G substrates, residue named = P1, trypsin. How it is done:
as §1, with “For the substrates with the new donor acceptor pair, ACC/DNP, the excitation wavelength was 355 nm, and the emission wavelength was 460 nm; for MCA/DNP, the corresponding values were 325 and 420 nm, respectively.” left out
Trypsin was assayed in a buffer containing 0.05 M Tris, 0.15 M NaCl, and 0.01% Triton X100 at pH 7.6. The enzyme was incubated with the assay buffer for 10 min at 37 °C prior to the substrate addition and the measurement. Eight internally quenched substrates were tested in the assay. The trypsin concentration for substrates containing Arg and Lys at P1 was 0.1 nM; for Arg(Me) substrates, the enzyme concentration was 30 nM; and for all other substrates, the enzyme concentration was 200 nM.

[8] abbreviates: ACC/Lys(DNP) substrate, elastase 0.34 nM, ex 355/em 460 nm.
Where [9] appears, read: ACC-GGLS(P1)*IVK(DNP)G-NH2 hydrolysis by trypsin, trypsin 0.1 nM (Arg, Lys), 30 nM (Arg(Me)), 200 nM (all others), 0.05 M Tris, 0.15 M NaCl, 0.01% Triton X100 pH 7.6, 37 °C, SD <10% (Arg/Lys), <15% (modified).
Where [10] appears, read: MCA/Lys(DNP) substrate, elastase 1.4 nM, ex 325/em 420 nm.

As usually defined, the Km is the substrate concentration at which the rate is half of its maximum. In general, kcat refers to the number of substrate molecules converted per active site and unit of time at saturation.

T3 sequence (Q14790 217-374 limits assumed): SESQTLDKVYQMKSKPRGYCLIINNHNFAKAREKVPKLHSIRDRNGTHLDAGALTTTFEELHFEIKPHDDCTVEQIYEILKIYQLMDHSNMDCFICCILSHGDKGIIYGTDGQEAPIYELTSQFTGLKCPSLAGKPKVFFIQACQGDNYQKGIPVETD
T3 sequence (Q14790 385-479 limits assumed): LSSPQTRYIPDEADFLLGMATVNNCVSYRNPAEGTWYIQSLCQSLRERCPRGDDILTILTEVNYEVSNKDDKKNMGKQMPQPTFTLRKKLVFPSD

As to “ACC-GAEPV*SLK(dnp)L-NH2 [ACC/Lys(DNP) internally quenched fluorescent substrate for human neutrophil elastase]”, in data set [1] (setting [8]), the Km worked out at 1.22 µM, the kcat was determined as 2.44 s⁻¹ and the kcat/KM is listed as 2 006 000 M^−1s^−1.
As for “ACC-GDEVD*GVK(dnp)D-NH2 [ACC/Lys(DNP) internally quenched fluorescent substrate for caspases]”, at caspase-3 [2], the Km turned out to be 6.74 µM, the kcat was 7.52 s⁻¹ and the kcat/KM is on record as 1 116 000 M^−1s^−1. Further, at caspase-8 [3], the Km stood at 11 µM, the kcat stood at 0.32 s⁻¹ and the kcat/KM is reported as 29 400 M^−1s^−1. For the same substance, at caspase-7 [4], the Km was 8.36 µM, the kcat was 0.47 s⁻¹ and the kcat/KM is listed as 56 800 M^−1s^−1.
Consider ACC-GDEVD/XKK(dnp)G-NH2 [DEVD/A], for which the cleaved bond result in the data set with caspase-3 [5] and with caspase-7 [6] was “D-A” throughout.
With ACC-GDEVD/XKK(dnp)G-NH2 [DEVD/G], the cleaved bond result in the data set on caspase-3 [5] and in the data set with caspase-7 [6] was “D-G” throughout.
As to ACC-GDEVD/XKK(dnp)G-NH2 [DEVD/S], the cleaved bond entry in the data set with caspase-3 [5] and in the data set on caspase-7 [6] was “D-S” in each case.
Consider ACC-GDEVE/XKK(dnp)G-NH2 [DEVE/S], for which the cleaved bond result with caspase-3 [5] and with caspase-7 [6] was “E-S” each time.
For the substance ACC-GLEHD(G/A/S)KK(dnp)G-NH2 [LEHD/A], the cleaved bond result in the data set with caspase-10, with caspase-8 [7] and in the data set with caspase-9 was “D-A” in each case.
Take ACC-GLEHD(G/A/S)KK(dnp)G-NH2 [LEHD/G]: the cleaved bond entry in the data set with caspase-10, with caspase-8 [7] and in the data set on caspase-9 was “D-G” in each case.
For the substance ACC-GLEHD(G/A/S)KK(dnp)G-NH2 [LEHD/S], the cleaved bond entry in the data set with caspase-10, in the data set on caspase-8 [7] and in the data set with caspase-9 was “D-S” in each case.
Take ACC-GLEHE(G/A/S)KK(dnp)G-NH2 [LEHE/A]: the cleaved bond result in the data set with caspase-10, in the data set on caspase-8 [7] and in the data set with caspase-9 was “E-A” each time.
For the substance ACC-GLEHE(G/A/S)KK(dnp)G-NH2 [LEHE/G], the cleaved bond entry in the data set on caspase-10, in the data set with caspase-8 [7] and in the data set with caspase-9 was “E-G” each time.
Take ACC-GLEHE(G/A/S)KK(dnp)G-NH2 [LEHE/S]: the cleaved bond entry in the data set on caspase-10, with caspase-8 [7] and with caspase-9 was “E-S” each time.
As for Alanine, in the data set with trypsin (setting [9]), the KM entry is reported as “No measurable hydrolysis”, the kcat entry is on record as “No measurable hydrolysis” and the kcat/KM entry was “No measurable hydrolysis”. In addition, the kcat/Km values result with trypsin is “did not recognize”.
Take Arginine: in the data set with trypsin (setting [9]), the Km is 2.5 µM, the kcat stood at 24.1 s⁻¹ and the kcat/KM is listed as 9 624 000 s^−1M^−1. For the same substance, the kcat/Km values in the data set on trypsin was 9,624,000 M^−1s^−1.
As for Citrulline, in the data set on trypsin (setting [9]), the Km came out at 90.3 µM, the kcat is 0.000359 s⁻¹ and the kcat/KM was 4 s^−1M^−1.
With Lysine, in the data set with trypsin (setting [9]), the Km came out at 2.8 µM, the kcat was found to be 4.2 s⁻¹ and the kcat/KM is reported as 1 500 000 s^−1M^−1. Besides, the kcat/Km values in the data set on trypsin is reported as 1,500,000 M^−1s^−1.
In the case of “MCA-GAEPV*SLK(dnp)L-NH2 [MCA/Lys(DNP) internally quenched fluorescent substrate for human neutrophil elastase]”, in data set [1] (setting [10]), the Km was found to be 2.27 µM, the kcat worked out at 2.58 s⁻¹ and the kcat/KM is 1 147 219 M^−1s^−1.
On to Ornithine, for which, in the data set with trypsin (setting [9]), the Km turned out to be 21.9 µM, the kcat came out at 0.0017 s⁻¹ and the kcat/KM is on record as 78 s^−1M^−1.

Source of the values: publication PMC5322338 (Scientific Reports, 2017).
